# In ChEMBL document CHEMBL1909046, “DrugMatrix in vitro pharmacology data”:
# Assays:
# [1] = molecular target: T1, Receptor-type tyrosine-protein phosphatase C (Homo sapiens, UniProt P08575); set-up: species or system Escherichia coli;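 further: inhibition of CD45 enzyme activity measured using DiFMUP as substrate; in other assays of this panel Not Active means under 50% inhibition at 10 µM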
# T1 sequence (P08575 whole entry): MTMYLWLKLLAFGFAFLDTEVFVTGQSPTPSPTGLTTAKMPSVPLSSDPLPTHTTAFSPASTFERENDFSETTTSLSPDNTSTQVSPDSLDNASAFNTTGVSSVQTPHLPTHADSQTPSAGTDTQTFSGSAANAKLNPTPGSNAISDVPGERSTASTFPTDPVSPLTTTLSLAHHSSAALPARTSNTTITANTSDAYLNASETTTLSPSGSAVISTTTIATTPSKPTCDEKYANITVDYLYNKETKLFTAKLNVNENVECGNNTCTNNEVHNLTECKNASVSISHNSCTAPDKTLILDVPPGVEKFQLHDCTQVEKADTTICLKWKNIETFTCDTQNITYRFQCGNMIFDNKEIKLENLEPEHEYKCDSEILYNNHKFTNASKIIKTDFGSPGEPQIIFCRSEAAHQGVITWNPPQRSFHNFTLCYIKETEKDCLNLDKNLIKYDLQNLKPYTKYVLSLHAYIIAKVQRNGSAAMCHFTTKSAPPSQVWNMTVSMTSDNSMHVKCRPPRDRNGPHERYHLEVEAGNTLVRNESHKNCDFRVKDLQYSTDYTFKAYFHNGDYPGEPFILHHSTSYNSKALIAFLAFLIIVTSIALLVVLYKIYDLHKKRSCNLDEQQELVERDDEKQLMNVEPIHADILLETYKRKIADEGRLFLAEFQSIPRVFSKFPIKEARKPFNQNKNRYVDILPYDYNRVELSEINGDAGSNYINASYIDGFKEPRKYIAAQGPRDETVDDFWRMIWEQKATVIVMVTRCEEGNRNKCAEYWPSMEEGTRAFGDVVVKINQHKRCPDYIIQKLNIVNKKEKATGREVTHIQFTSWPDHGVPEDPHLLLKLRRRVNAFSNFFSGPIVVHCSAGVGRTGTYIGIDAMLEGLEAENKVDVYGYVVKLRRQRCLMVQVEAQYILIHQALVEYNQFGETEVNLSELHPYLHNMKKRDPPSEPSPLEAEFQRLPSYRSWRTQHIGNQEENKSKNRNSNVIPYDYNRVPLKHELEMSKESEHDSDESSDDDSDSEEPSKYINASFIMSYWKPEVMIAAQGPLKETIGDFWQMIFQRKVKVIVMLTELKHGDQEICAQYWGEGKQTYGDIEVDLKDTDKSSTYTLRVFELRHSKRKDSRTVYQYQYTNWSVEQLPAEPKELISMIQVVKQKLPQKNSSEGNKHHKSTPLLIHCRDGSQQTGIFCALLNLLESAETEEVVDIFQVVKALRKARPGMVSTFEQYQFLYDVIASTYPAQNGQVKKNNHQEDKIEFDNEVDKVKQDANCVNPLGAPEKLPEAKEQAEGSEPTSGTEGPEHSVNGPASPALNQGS
# [2] = DRUGMATRIX: Glutamate, Kainate radioligand binding (ligand: [3H] Kainic acid); assay type: cell membranes, Rattus norvegicus, Wistar, Brain, Membrane; settings: Not Active = under 50% inhibition at 10 µM
# [3] = DRUGMATRIX: Purinergic P2X radioligand binding (ligand: [3H] alpha, beta-Methylene-ATP); assay type: cell membranes, Oryctolagus cuniculus, New Zealand albino, Urinary bladder, Membrane; settings: Not Active = under 50% inhibition at 10 µM
# [4] = DRUGMATRIX: Glutamate, NMDA, Phencyclidine radioligand binding (ligand: [3H] TCP); assay type: cell membranes, Rattus norvegicus, Wistar, Cerebral cortex, Membrane; settings: Not Active = under 50% inhibition at 10 µM
# [5] = molecular target: Delta-type opioid receptor (Homo sapiens, UniProt P41143); assay type: cell membranes, Membrane; settings: hek293; further: in other assays of this panel Not Active means under 50% inhibition at 10 µM
# Delta-type opioid receptor, sequence (P41143 whole entry): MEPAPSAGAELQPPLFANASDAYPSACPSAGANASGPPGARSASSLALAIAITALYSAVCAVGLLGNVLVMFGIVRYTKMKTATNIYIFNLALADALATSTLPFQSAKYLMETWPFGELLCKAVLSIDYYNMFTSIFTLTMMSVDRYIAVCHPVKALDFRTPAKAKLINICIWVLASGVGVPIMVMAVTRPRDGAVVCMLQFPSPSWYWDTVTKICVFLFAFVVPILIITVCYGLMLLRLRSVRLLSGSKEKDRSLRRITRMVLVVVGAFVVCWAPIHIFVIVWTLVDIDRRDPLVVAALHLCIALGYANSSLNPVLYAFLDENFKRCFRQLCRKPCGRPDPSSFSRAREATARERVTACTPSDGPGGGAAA
# Glycine receptor = Glycine receptor (Rattus norvegicus, UniProt P22771+P24524+P07727+P20781); assay type: cell membranes, Wistar, Spinal cord, Membrane; further: in other assays of this panel Not Active means under 50% inhibition at 10 µM
# [6] = DRUGMATRIX: Glutamate, AMPA radioligand binding (ligand: [3H] AMPA); assay type: cell membranes, Rattus norvegicus, Wistar, Cerebral cortex, Membrane; settings: Not Active = under 50% inhibition at 10 µM
# [7] = molecular target: T2, Neuropeptide Y receptor type 1 (Homo sapiens, UniProt P25929); assay type: cell membranes, Membrane; settings: sk-n-mc; further: in other assays of this panel Not Active means under 50% inhibition at 10 µM
# T2 sequence (P25929 whole entry): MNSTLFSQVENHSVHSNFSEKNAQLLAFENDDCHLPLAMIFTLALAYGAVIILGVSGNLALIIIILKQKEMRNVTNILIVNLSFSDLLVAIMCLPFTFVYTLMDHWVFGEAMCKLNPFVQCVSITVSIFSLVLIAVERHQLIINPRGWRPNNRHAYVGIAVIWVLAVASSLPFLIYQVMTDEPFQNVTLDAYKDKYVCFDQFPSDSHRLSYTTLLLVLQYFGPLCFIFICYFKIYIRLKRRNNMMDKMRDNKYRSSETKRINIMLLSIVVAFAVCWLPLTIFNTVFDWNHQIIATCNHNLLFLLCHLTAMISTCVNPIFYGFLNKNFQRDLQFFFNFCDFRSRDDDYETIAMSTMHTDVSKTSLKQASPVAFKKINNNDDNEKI
SMILES,IC50 [1],IC50 [2],Ki [2],IC50 [3],Ki [3],IC50 [4],Ki [4],IC50 [5],IC50 (Glycine receptor),IC50 [6],Ki [6],IC50 [7],IC50 ([4]; read-out: IC50) [nM],Ki ([4]; read-out: Ki) [nM]
Cc1c(C)c2c(c(C)c1O)CCC(C)(CN1CCN(c3cc(N4CCCC4)nc(N4CCCC4)n3)CC1)O2 (stereo not given),Not Active,Not Active,Not Active,Not Active,Not Active,Not Active,Not Active,Not Active,Not Active,Not Active,Not Active,Not Active,,
COc1ccc(CCN(C)CCCC(C#N)(c2ccc(OC)c(OC)c2)C(C)C)cc1OC (stereo not given),Not Active,Not Active,Not Active,Not Active,Not Active,Not Active,Not Active,Not Active,Not Active,Not Active,Not Active,Not Active,,
CC(C)Cc1ccc([C@@H](C)C(=O)O)cc1 [(R)-IBUPROPHEN],Not Active,Not Active,Not Active,Not Active,Not Active,Not Active,Not Active,Not Active,Not Active,Not Active,Not Active,Not Active,,
CN(C)CCOC(c1ccccc1)c1ccccc1 [DIPHENHYDRAMINE],Not Active,,,,,,,Not Active,Not Active,,,Not Active,,
Clc1ccc(COC(Cn2ccnc2)c2ccc(Cl)cc2Cl)cc1 (stereo not given) [ECONAZOLE],Not Active,,,,,,,,Not Active,,,Not Active,,
CCN(CC)CCOc1ccc(/C(=C(/Cl)c2ccccc2)c2ccccc2)cc1 [ENCLOMIPHENE],Not Active,,,,,,,Not Active,Not Active,,,Not Active,,
Fc1ccc(C(c2ccc(F)cc2)N2CCN(C/C=C/c3ccccc3)CC2)cc1 [FLUNARIZINE],Not Active,,,,,,,Not Active,Not Active,,,Not Active,,
CNCCC(Oc1ccc(C(F)(F)F)cc1)c1ccccc1 (stereo not given) [FLUOXETINE],Not Active,,,,,,,Not Active,Not Active,,,Not Active,,
Cc1ccc(NC(=O)c2ccc(CN3CCN(C)CC3)cc2)cc1Nc1nccc(-c2cccnc2)n1 [IMATINIB],Not Active,,,,,,,Not Active,Not Active,,,Not Active,,
CC(C)Oc1ccc2c(=O)c(-c3ccccc3)coc2c1 [IPRIFLAVONE],Not Active,Not Active,Not Active,Not Active,Not Active,Not Active,Not Active,Not Active,Not Active,Not Active,Not Active,Not Active,,
CC(C)NCC(O)c1ccc(O)c(O)c1 (stereo not given) [ISOPROTERENOL],Not Active,Not Active,Not Active,Not Active,Not Active,Not Active,Not Active,Not Active,Not Active,Not Active,Not Active,Not Active,,
CNC1(c2ccccc2Cl)CCCCC1=O (stereo not given) [KETAMINE],Not Active,Not Active,Not Active,Not Active,Not Active,,,Not Active,Not Active,Not Active,Not Active,Not Active,1010,684
N#Cc1ccc(C(c2ccc(C#N)cc2)n2cncn2)cc1 [LETROZOLE],Not Active,Not Active,Not Active,Not Active,Not Active,Not Active,Not Active,Not Active,Not Active,Not Active,Not Active,Not Active,,
CCN1CCC[C@H]1CNC(=O)c1cc(S(N)(=O)=O)ccc1OC [LEVOSULPIRIDE],Not Active,Not Active,Not Active,Not Active,Not Active,Not Active,Not Active,Not Active,Not Active,Not Active,Not Active,Not Active,,
CCN(CC)CC(=O)Nc1c(C)cccc1C [LIDOCAINE],Not Active,Not Active,Not Active,Not Active,Not Active,Not Active,Not Active,Not Active,Not Active,Not Active,Not Active,Not Active,,
O=C1Nc2ccc(Cl)cc2C(c2ccccc2Cl)=NC1O (stereo not given) [LORAZEPAM],Not Active,Not Active,Not Active,Not Active,Not Active,Not Active,Not Active,Not Active,Not Active,Not Active,Not Active,Not Active,,
CO[C@@H]1[C@@H](OC)[C@H](C)[C@@](O)(CC(=O)O)O[C@H]1[C@H](C)[C@H]1O[C@@]2(CC[C@@](C)([C@H]3CC[C@@](C)([C@@H]4O[C@@H]([C@H]5O[C@](C)(O)[C@H](C)C[C@@H]5C)C[C@@H]4O[C@@H]4C[C@H](OC)[C@@H](OC)[C@H](C)O4)O3)O2)C[C@H](O)[C@H]1C [MADURAMICIN ACID],Not Active,Not Active,Not Active,Not Active,Not Active,Not Active,Not Active,Not Active,Not Active,Not Active,Not Active,Not Active,,
COc1c2occc2cc2ccc(=O)oc12 [METHOXSALEN],Not Active,Not Active,Not Active,Not Active,Not Active,Not Active,Not Active,Not Active,Not Active,Not Active,Not Active,Not Active,,
C[C@H]1C[C@@H]2[C@H]([C@@H](O)C[C@@]3(C)[C@H]2CC[C@]3(O)C(=O)CO)[C@@]2(C)C=CC(=O)C=C12 [METHYLPREDNISOLONE],Not Active,Not Active,Not Active,Not Active,Not Active,Not Active,Not Active,Not Active,Not Active,Not Active,Not Active,Not Active,,
Cc1cccc(C)c1OCC(C)N (stereo not given) [MEXILETINE],Not Active,Not Active,Not Active,Not Active,Not Active,Not Active,Not Active,Not Active,Not Active,Not Active,Not Active,Not Active,,
CN[C@H]1CC[C@@H](c2ccc(Cl)c(Cl)c2)c2ccccc21 [SERTRALINE],Not Active,,,,,,,Not Active,Not Active,,,Not Active,,
